From ChEMBL document CHEMBL1135345, “Design and characterization of non-phosphopeptide inhibitors for Src family SH2 domains” (Bioorg Med Chem Lett, 2002) come the findings set out here.

Assay [1] addresses Tyrosine-protein kinase Lck (Homo sapiens, UniProt P06239). Description: Affinity for GST-Lck-SH2 domain in ELISA. On the technique in general: In an ELISA, binding on a coated surface is turned into a signal by an enzyme label.
Assay [2] has as its target Proto-oncogene tyrosine-protein kinase Src (Homo sapiens, UniProt P12931). Nature of the assay: Affinity for GST- Src-SH2 domain in ELISA.
Assay [3] addresses Tyrosine-protein kinase Fyn (Homo sapiens, UniProt P06241). Nature of the assay: Affinity for GST-Fyn-SH2 domain in ELISA.

Where a SMILES comes first, the peptide text is derived from it. [ ]: non-standard residue; d: D form. The star is where a group is joined. pY = N[C@@H](Cc1ccc(OP(=O)(O)O)cc1)C(=O)O; Dopa = N[C@@H](Cc1ccc(O)c(O)c1)C(=O)O; Caffeoyl = O=C(/C=C/c1ccc(O)c(O)c1)*; X1 = O=C(Cc1cc(=O)oc2cc(O)ccc12)* Bounds are passed on as bounds.

Chain of Proto-oncogene tyrosine-protein kinase Src (P12931 2-536 limits assumed): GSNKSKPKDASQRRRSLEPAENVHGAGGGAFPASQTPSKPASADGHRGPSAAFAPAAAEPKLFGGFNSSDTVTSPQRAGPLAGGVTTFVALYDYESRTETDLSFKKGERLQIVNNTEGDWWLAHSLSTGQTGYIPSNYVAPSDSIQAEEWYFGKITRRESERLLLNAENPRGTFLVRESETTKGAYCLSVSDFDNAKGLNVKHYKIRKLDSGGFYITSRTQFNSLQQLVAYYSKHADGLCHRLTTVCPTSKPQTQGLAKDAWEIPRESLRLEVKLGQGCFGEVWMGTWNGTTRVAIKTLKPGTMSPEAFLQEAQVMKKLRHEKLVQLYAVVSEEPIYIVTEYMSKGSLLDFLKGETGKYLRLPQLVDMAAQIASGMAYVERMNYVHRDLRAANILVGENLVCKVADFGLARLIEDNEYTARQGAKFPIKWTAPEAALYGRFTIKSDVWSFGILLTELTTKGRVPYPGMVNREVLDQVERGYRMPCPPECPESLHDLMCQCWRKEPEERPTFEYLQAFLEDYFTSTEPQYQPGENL
Chain of Tyrosine-protein kinase Fyn (P06241 whole entry, the tested form may be a part): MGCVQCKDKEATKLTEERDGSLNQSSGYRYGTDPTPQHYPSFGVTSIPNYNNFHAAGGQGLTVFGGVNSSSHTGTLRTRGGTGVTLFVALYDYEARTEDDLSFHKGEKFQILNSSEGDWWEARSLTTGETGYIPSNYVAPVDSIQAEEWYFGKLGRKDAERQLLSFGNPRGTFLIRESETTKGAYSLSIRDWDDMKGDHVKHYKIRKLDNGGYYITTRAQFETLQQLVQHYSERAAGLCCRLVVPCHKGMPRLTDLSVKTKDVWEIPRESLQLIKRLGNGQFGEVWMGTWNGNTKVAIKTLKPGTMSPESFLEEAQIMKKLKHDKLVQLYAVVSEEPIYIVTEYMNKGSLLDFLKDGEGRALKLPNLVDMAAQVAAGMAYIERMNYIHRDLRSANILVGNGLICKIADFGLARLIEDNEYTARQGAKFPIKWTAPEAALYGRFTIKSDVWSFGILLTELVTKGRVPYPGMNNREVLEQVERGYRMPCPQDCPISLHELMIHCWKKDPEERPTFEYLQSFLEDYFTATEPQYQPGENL
Chain of Tyrosine-protein kinase Lck (P06239 whole entry, the tested form may be a part): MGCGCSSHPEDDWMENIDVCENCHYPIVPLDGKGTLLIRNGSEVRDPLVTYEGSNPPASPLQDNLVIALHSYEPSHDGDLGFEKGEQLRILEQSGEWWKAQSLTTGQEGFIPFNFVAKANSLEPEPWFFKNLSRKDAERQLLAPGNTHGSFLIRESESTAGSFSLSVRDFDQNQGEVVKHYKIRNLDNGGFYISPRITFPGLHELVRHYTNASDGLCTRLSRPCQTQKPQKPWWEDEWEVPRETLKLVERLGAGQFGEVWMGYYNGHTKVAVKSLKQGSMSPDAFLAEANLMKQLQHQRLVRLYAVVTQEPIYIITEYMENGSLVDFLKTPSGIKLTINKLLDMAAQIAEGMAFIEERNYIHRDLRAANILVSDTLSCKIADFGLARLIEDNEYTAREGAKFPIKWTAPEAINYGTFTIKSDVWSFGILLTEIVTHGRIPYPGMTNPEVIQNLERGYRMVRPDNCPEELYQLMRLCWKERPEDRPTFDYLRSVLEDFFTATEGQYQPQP

`CC(=O)N[C@@H](Cc1ccc(O)c(O)c1)C(=O)N[C@@H](CCC(=O)O)C(=O)N[C@@H](CCC(=O)O)C(=O)N[C@@H](CCC(=O)O)C(=O)O` (Ac-[Dopa]EEE-OH): the figures for the IC50 in assay [1], in assay [2] and in assay [3] were 120 µM, 160 µM and above 200 µM, respectively.

For the compound Ac-YAEIE-OH, the IC50 was 3.8 µM in assay [1], 7 µM in assay [2] and 11 µM in assay [3].

In the case of `CC[C@H](C)[C@H](NC(=O)[C@H](CCC(=O)O)NC(=O)[C@H](CCC(=O)O)NC(=O)[C@H](Cc1ccc(O)c(O)c1)NC(=O)/C=C/c1ccc(O)c(O)c1)C(=O)N[C@@H](CCC(=O)O)C(=O)O` (Caffeoyl-[Dopa]EEIE-OH), the IC50 is 18 µM in assay [1], 55 µM in assay [2] and 33 µM in assay [3].

Turning to Ac-YEEIE-OH, the IC50 in assay [1], in assay [2] and in assay [3] was above 200 µM throughout.

As for `CC[C@H](C)[C@H](NC(=O)[C@H](CCC(=O)O)NC(=O)[C@H](CCC(=O)O)NC(=O)[C@H](Cc1ccc(O)cc1)NC(=O)/C=C/c1ccc(O)c(O)c1)C(=O)N[C@@H](CCC(=O)O)C(=O)O` (Caffeoyl-YEEIE-OH), the values for the IC50 in assay [1], in assay [2] and in assay [3] were 27 µM, 54 µM and 45 µM, respectively.

Regarding `CC[C@H](C)[C@H](NC(=O)[C@H](CCC(=O)O)NC(=O)[C@H](CCC(=O)O)NC(=O)[C@H](Cc1ccc(OP(=O)(O)O)cc1)NC(=O)/C=C/c1ccc(O)c(O)c1)C(=O)N[C@@H](CCC(=O)O)C(=O)O` (Caffeoyl-[pY]EEIE-OH), the IC50 in assay [1] came out at 0.042 µM; in assay [2] it was 0.064 µM; in assay [3] it was 0.084 µM.

As for `CC[C@H](C)[C@H](NC(=O)[C@H](CCC(=O)O)NC(=O)[C@H](CCC(=O)O)NC(=O)[C@H](Cc1ccc(O)c(O)c1)NC(=O)Cc1cc(=O)oc2cc(O)ccc12)C(=O)N[C@@H](CCC(=O)O)C(=O)O` (X1-[Dopa]EEIE-OH), the IC50 in assay [1] turned out to be 58 µM; in assay [2] it was 65 µM; in assay [3] it was 77 µM.

As for `CC[C@H](C)[C@H](NC(=O)[C@H](CCC(=O)O)NC(=O)[C@H](CCC(=O)O)NC(=O)[C@H](Cc1ccc(OP(=O)(O)O)cc1)NC(=O)Cc1cc(=O)oc2cc(O)ccc12)C(=O)N[C@@H](CCC(=O)O)C(=O)O` (X1-[pY]EEIE-OH), the IC50 in assay [1] was 0.081 µM; in assay [2] it was 0.09 µM; in assay [3], 0.1 µM.

For the compound `CC[C@H](C)[C@H](NC(=O)[C@H](CCC(=O)O)NC(=O)[C@H](CCC(=O)O)NC(=O)[C@H](Cc1ccc(OP(=O)(O)O)cc1)NC(C)=O)C(=O)N[C@@H](CCC(=O)O)C(=O)O` (Ac-[pY]EEIE-OH), the IC50 in assay [1] turned out to be 1.3 µM; in assay [3] it was 1.1 µM.

In general, IC50 refers to the midpoint of a concentration-inhibition curve. Read a low IC50 as higher potency.
